Assay results as given in patent publication US9969858B2, “Metalloinsertor conjugates” (CALIFORNIA INSTITUTE OF TECHNOLOGY, priority 2015, dated 2018).

Test system: duplex DNA containing a CC mismatch
Test: Photocleavage of mismatched DNA upon irradiation (competition titration)
Type: biochemical
Details: 340-440 nm irradiation
Description: For [RhPt] Conjugate, a single-stranded DNA oligomer with the sequence [NT]. ID NO: 2) (underline denotes the mismatch) was labeled at the 5'-end with [^32P]-ATP and polynucleotide kinase (PNK) at 37° C. for 1 h. The radiolabeled DNA was purified by gel electrophoresis and annealed to its mismatched complement (containing a CC mismatch) by heating to 90° C. in buffer (100 mM NaCl, 20 mM NaPi, pH 7.1), followed by slow cooling to ambient temperature over 3 h, to give a final concentration of 2 μM duplex DNA. Racemic solutions of the metal complex (containing all stereoisomers) were prepared in Milli-Q water over a range of concentrations (100 nM-50 μM). For each sample, 4 μM […] (5 μl), which photocleaves DNA at mismatched sites, 2 μM annealed mismatched duplex DNA (10 μl), and the non-photocleaving competitor complex at various concentrations (5 μl) were combined to give 1 μM […] and 1 μM duplex DNA as the final concentrations. […] The amounts of DNA in each band were analyzed by autoradiography and quantitated by phosphorimagery (ImageQuant) (FIG. 20). […] To assess the binding of the rhodium subunit of RhPt at the CC mismatch, the fraction of cleaved DNA was quantified and expressed as a percentage of the total DNA in each lane and plotted against the log of the concentration of RhPt. […]

Row | Substance | photocleavage of DNA upon irradiation
1 | [Rh(chrysi)(HDPA)(Amal)Pt(DACH]^3+ [RhPt] | does not photocleave DNA
2 | rac-[Rh(bpy)2chrysi]Cl3 [rac-[Rh(bpy)2chrysi]3+] | does photocleave DNA at mismatched sites
